Laboratory results as given in patent US9051310B2, “Nicotinamide derivative or salt thereof” (FUJIFILM Corporation, priority 2011, dated 2015).

How the values were obtained:
[1] = target: T1, glutathione S-transferase (GST)-linked full-length human Syk protein (Homo sapiens, UniProt P43405); experiment: Syk enzyme assay; assay type: biochemical; conditions: 0.83 nM Syk, time-resolved fluorescence; read-out: IC50 of Syk-inhibitory activity
T1 construct: glutathione S-transferase (GST)-linked full-length human Syk protein; purchased Carna Biosciences; host or cells: Baculovirus expression system
How it was run: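 Phosphotyrosine on a biotin-peptide substrate (0.5 μM) was read by time-resolved fluorescence at 615 and 665 nm with Eu-anti-pTyr antibody and APC-streptavidin after 1 h EDTA stop.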

[2] = tested on: THP-1 cells (phagocytosis of opsonized Escherichia coli); experiment: Antibody-dependent phagocytosis assay; assay type: cell-based; conditions: Homo sapiens; IFNγ differentiated THP-1 cells, opsonized pHrodo Escherichia coli, 3 hours; read-out: IC50 upon phagocytosis inhibition
Protocol: THP-1 cells (2×10^5 cells/ml), which were human monocytoid cells, were cultured in the presence of 10 ng/ml IFNγ for 2 days, and they were induced to differentiate into macrophage-like cells. The differentiation-induced THP-1 cells were recovered, and the cells (5×10^4 cells/well) were then allowed to react with a predetermined concentration of test compound at room temperature for 30 minutes. Thereafter, Escherichia coli (Life Technologies) labeled with a pH-sensitive dye (pHrodo) was subjected to opsonization using an anti-Escherichia coli antibody (Life Technologies). Then, the resultant was added to the THP-1 cells obtained above, followed by incubation at 37° C. for 3 hours. Opsonized Escherichia coli and cell-permeable fluorescent dye (Calcein AM) were simultaneously added thereto, followed by quantitative determination of phagocytosis of opsonized Escherichia coli in viable cells using an IN Cell Analyzer.

[3] = tested on: THP-1 cells (TNFα secretion on human IgG-coated plate); experiment: TNFα generation assay; assay type: cell-based; conditions: IFN-γ differentiated THP-1 cells, 7 hours, AlphaLISA, read-out: IC50 of TNFα generation inhibitory activity
How it was run: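 THP-1 cells were differentiated with 10 ng/ml IFN-γ for 2 days, then preincubated with compound for 30 min at room temperature. They were then plated at 5×10^4 cells/well on plates coated with human IgG (10 μg/ml). TNFα secreted over 7 h of culture was quantified by AlphaLISA.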

**Q.** Which results are given for `CN(C)c1c2cc(Nc3nc(N[C@@H]4CCCC[C@@H]4N)c(F)cc3C(N)=O)ccc2nn1C` [Example 2-13, 6-(((1R,2S)-2-aminocyclohexyl)amino)-2-((3-(dimethylamino)-2-methyl-2H-indazol-5-yl)amino)-5-fluoronicotinamide]?
**A.** IC50 [1]: < 10 nM; IC50 [2]: < 1000 nM

**Q.** `CCn1nc(OC)c2cc(Nc3nc(N[C@H](CC4CC4)[C@H](C)N)c(F)cc3C(N)=O)ccc21` [Example 2-50, 6-(((2R,3S)-3-amino-1-cyclopropylbutan-2-yl)amino)-2-((1-ethyl-3-methoxy-1H-indazol-5-yl)amino)-5-fluoronicotinamide] was tested. Which IC50 [1] did it give?
**A.** < 10 nM

**Q.** And the IC50 [2]?
**A.** < 1000 nM

**Q.** For `CC[C@H](N)[C@@H](CC)Nc1nc(Nc2ccc3c(c2)c(OC)nn3C)c(C(N)=O)cc1F` [Example 2-85, 6-(((3R,4S)-4-aminohexan-3-yl)amino)-5-fluoro-2-((3-methoxy-1-methyl-1H-indazol-5-yl)amino)nicotinamide], which IC50 [1] is on record?
**A.** 10 to 50 nM

**Q.** And the IC50 [2]?
**A.** < 1000 nM

**Q.** How did the IC50 [1] turn out when `COc1ncc(Nc2nc(N[C@H](C3CC3)[C@H](C)N)c(F)cc2C(N)=O)cc1-n1nccn1` [Example 2-113, 6-(((1R,2S)-2-amino-1-cyclopropylpropyl)amino)-5-fluoro-2-((6-methoxy-5-(2H-1,2,3-triazol-2-yl)pyridin-3-yl)amino)nicotinamide] was run?
**A.** 10 to 50 nM

**Q.** And the IC50 [2]?
**A.** 1000 to 3000 nM

**Q.** What does the source list for `COCCOc1ncc(Nc2nc(N[C@H](C3CCC3)[C@H](C)N)c(F)cc2C(N)=O)cc1F` [Example 2-116, 6-(((1R,2S)-2-amino-1-cyclobutylpropyl)amino)-5-fluoro-2-((5-fluoro-6-(2-methoxyethoxy)pyridin-3-yl)amino)nicotinamide]?
**A.** IC50 [1]: 10 to 50 nM; IC50 [2]: 1000 to 3000 nM

**Q.** With `COCCn1nc(OC)c2cc(Nc3nc(N[C@@H](CN)CC(C)C)c(F)cc3C(N)=O)ccc21` [Example 2-124, (R)-6-((1-amino-4-methylpentan-2-yl)amino)-5-fluoro-2-((3-methoxy-1-(2-methoxyethyl)-1H-indazol-5-yl)amino)nicotinamide] as the molecule, how does the IC50 [1] read?
**A.** < 10 nM

**Q.** And the IC50 [2]?
**A.** < 1000 nM

**Q.** For `COCCn1nc(OC)c2cc(Nc3nc(N[C@H](COC)[C@H](C)N)c(F)cc3C(N)=O)ccc21` [Example 2-128, 6-(((2S,3S)-3-amino-1-methoxybutan-2-yl)amino)-5-fluoro-2-((3-methoxy-1-(2-methoxyethyl)-1H-indazol-5-yl)amino)nicotinamide], which IC50 [1] is on record?
**A.** 10 to 50 nM

**Q.** What about the IC50 [2] of the same molecule?
**A.** 1000 to 3000 nM

**Q.** With `COc1nn(C)c2c(F)cc(Nc3nc(N[C@H](C4CCC4)[C@H](C)N)c(F)cc3C(N)=O)cc12` [Example 2-158, 6-(((1R,2S)-2-amino-1-cyclobutylpropyl)amino)-5-fluoro-2-((7-fluoro-3-methoxy-1-methyl-1H-indazol-5-yl)amino)nicotinamide] as the molecule, how does the IC50 [1] read?
**A.** < 10 nM

**Q.** And the IC50 [2]?
**A.** < 1000 nM

**Q.** `CCOc1ncc(Nc2nc(N[C@H](C3CC3)[C@H](C)N)c(F)cc2C(N)=O)cc1-n1ccnn1` [Example 2-163, 6-(((1R,2S)-2-amino-1-cyclopropylpropyl)amino)-2-((6-ethoxy-5-(1H-1,2,3-triazol-1-yl)pyridin-3-yl)amino)-5-fluoronicotinamide] was tested. Which IC50 [1] did it give?
**A.** 10 to 50 nM

**Q.** What about the IC50 [2] of the same molecule?
**A.** 1000 to 3000 nM

**Q.** `COc1ncc(Nc2nc(N[C@H](C3CCC3)[C@H](C)N)c(F)cc2C(N)=O)cc1-n1ccnn1` [Example 2-166, 6-(((1R,2S)-2-amino-1-cyclobutylpropyl)amino)-5-fluoro-2-((6-methoxy-5-(1H-1,2,3-triazol-1-yl)pyridin-3-yl)amino)nicotinamide] was tested. Which IC50 [1] did it give?
**A.** 10 to 50 nM

**Q.** What about the IC50 [2] of the same molecule?
**A.** 1000 to 3000 nM

**Q.** What does the source list for `Cn1nc(OC(F)F)c2cc(Nc3nc(N[C@@H]4CCCC[C@@H]4N)c(F)cc3C(N)=O)ccc21` [Example 2-169, 6-(((1R,2S)-2-aminocyclohexyl)amino)-2-((3-(difluoromethoxy)-1-methyl-1H-indazol-5-yl)amino)-5-fluoronicotinamide]?
**A.** IC50 [1]: < 10 nM; IC50 [2]: < 1000 nM

**Q.** Which results are given for `COCCn1nc(OC(F)F)c2cc(Nc3nc(N[C@H](COC)[C@H](C)N)c(F)cc3C(N)=O)ccc21` [Example 2-178, 6-(((2S,3S)-3-amino-1-methoxybutan-2-yl)amino)-2-((3-(difluoromethoxy)-1-(2-methoxyethyl)-1H-indazol-5-yl)amino)-5-fluoronicotinamide]?
**A.** IC50 [1]: < 10 nM; IC50 [2]: 1000 to 3000 nM

**Q.** Which IC50 [1] does the source give for `CC[C@H](N)[C@@H](C)Nc1nc(Nc2cc(F)c3c(c2)c(N(C)C)nn3C)c(C(N)=O)cc1F` [Example 2-194, 6-(((2R,3S)-3-aminopentan-2-yl)amino)-2-((3-(dimethylamino)-7-fluoro-1-methyl-1H-indazol-5-yl)amino)-5-fluoronicotinamide] here?
**A.** < 10 nM

**Q.** And the IC50 [2]?
**A.** 1000 to 3000 nM

**Q.** `NC[C@@H](Cc1ccccc1)Nc1nc(Nc2ccc(N3CCOCC3)nc2)c(C(N)=O)cc1F` [Example 2-420, (R)-6-((1-amino-3-phenylpropan-2-yl)amino)-5-fluoro-2-((6-morpholinopyridin-3-yl)amino)nicotinamide] was tested. Which IC50 [2] did it give?
**A.** < 1000 nM

**Q.** For `CC[C@@H](Nc1nc(Nc2cccc(C(C)=O)c2)c(C(N)=O)cc1F)[C@H](C)N` [Example 2-478, 2-((3-acetylphenyl)amino)-6-(((2S,3R)-2-aminopentan-3-yl)amino)-5-fluoronicotinamide], which IC50 [1] is on record?
**A.** < 10 nM

**Q.** What about the IC50 [3] of the same molecule?
**A.** 65 to 130 nM

**Q.** `C[C@H](N)[C@H](Nc1nc(Nc2cccc(-n3nccn3)c2)c(C(N)=O)cc1F)C1CC1` [Example 2-479, 2-((3-(2H-1,2,3-triazol-2-yl)phenyl)amino)-6-(((1R,2S)-2-amino-1-cyclopropylpropyl)amino)-5-fluoronicotinamide] was tested. Which IC50 [1] did it give?
**A.** < 10 nM

**Q.** What about the IC50 [3] of the same molecule?
**A.** 65 to 130 nM

**Q.** For `C[C@H](N)[C@H](Nc1nc(Nc2cccc(-n3ccnn3)c2)c(C(N)=O)cc1F)C1CC1` [Example 2-480, 2-((3-(1H-1,2,3-triazol-1-yl)phenyl)amino)-6-(((1R,2S)-2-amino-1-cyclopropylpropyl)amino)-5-fluoronicotinamide], which IC50 [1] is on record?
**A.** < 10 nM

**Q.** And the IC50 [3]?
**A.** 65 to 130 nM

**Q.** With `Cc1ccc(Nc2nc(N[C@H](C3CC3)[C@H](C)N)c(F)cc2C(N)=O)cc1C` [Example 2-481, 6-(((1R,2S)-2-amino-1-cyclopropylpropyl)amino)-2-((3,4-dimethylphenyl)amino)-5-fluoronicotinamide] as the molecule, how does the IC50 [1] read?
**A.** < 10 nM

**Q.** What about the IC50 [3] of the same molecule?
**A.** 65 to 130 nM

**Q.** `CC(=O)c1cccc(Nc2nc(N[C@H](C3CC3)[C@H](C)N)c(F)cc2C(N)=O)c1` [Example 2-482, 2-((3-acetylphenyl)amino)-6-(((1R,2S)-2-amino-1-cyclopropylpropyl)amino)-5-fluoronicotinamide] was tested. Which IC50 [1] did it give?
**A.** < 10 nM

**Q.** And the IC50 [3]?
**A.** 65 to 130 nM

**Q.** `CNc1nn(C)c2ccc(Nc3nc(N[C@@H]4CCCC[C@@H]4N)c(F)cc3C(N)=O)cc12` [Example 2-496, 6-(((1R,2S)-2-aminocyclohexyl)amino)-5-fluoro-2-((1-methyl-3-(methylamino)-1H-indazol-5-yl)amino)nicotinamide] was tested. Which IC50 [1] did it give?
**A.** < 10 nM

**Q.** And the IC50 [3]?
**A.** 130 to 200 nM

**Q.** For `C[C@H](N)[C@H](Nc1nc(Nc2cnc(N3CCOCC3)c(F)c2)c(C(N)=O)cc1F)c1cccs1` [Example 2-508, 6-(((1S,2S)-2-amino-1-(thiophen-2-yl)propyl)amino)-5-fluoro-2-((5-fluoro-6-morpholinopyridin-3-yl)amino)nicotinamide], which IC50 [1] is on record?
**A.** < 10 nM

**Q.** And the IC50 [3]?
**A.** 65 to 130 nM

**Q.** How did the IC50 [1] turn out when `CC(=O)c1cc(Nc2nc(N[C@@H]3CCCC[C@@H]3N)c(F)cc2C(N)=O)cnc1C` [Example 2-518, 2-((5-acetyl-6-methylpyridin-3-yl)amino)-6-(((1R,2S)-2-aminocyclohexyl)amino)-5-fluoronicotinamide] was run?
**A.** < 10 nM

**Q.** And the IC50 [3]?
**A.** 65 to 130 nM

**Q.** Which results are given for `Cc1cnn(-c2cncc(Nc3nc(N[C@H](C4CC4)[C@H](C)N)c(F)cc3C(N)=O)c2)c1` [Example 2-519, 6-(((1R,2S)-2-amino-1-cyclopropylpropyl)amino)-5-fluoro-2-((5-(4-methyl-1H-pyrazol-1-yl)pyridin-3-yl)amino)nicotinamide]?
**A.** IC50 [1]: < 10 nM; IC50 [3]: 130 to 200 nM

**Q.** What does the source list for `CC[C@@H](Nc1nc(Nc2cncc(-n3cc(C)cn3)c2)c(C(N)=O)cc1F)[C@H](C)N` [Example 2-521, 6-(((2S,3R)-2-aminopentan-3-yl)amino)-5-fluoro-2-((5-(4-methyl-1H-pyrazol-1-yl)pyridin-3-yl)amino)nicotinamide]?
**A.** IC50 [1]: 10 to 50 nM; IC50 [3]: 65 to 130 nM

**Q.** Which IC50 [1] does the source give for `CC[C@@H](Nc1nc(Nc2cncc(-n3cc(Cl)cn3)c2)c(C(N)=O)cc1F)[C@H](C)N` [Example 2-522, 6-(((2S,3R)-2-aminopentan-3-yl)amino)-2-((5-(4-chloro-1H-pyrazol-1-yl)pyridin-3-yl)amino)-5-fluoronicotinamide] here?
**A.** 10 to 50 nM

**Q.** What about the IC50 [3] of the same molecule?
**A.** 130 to 200 nM

**Q.** With `COCCn1nc(OC)c2cc(Nc3nc(N[C@H](C4CC4)[C@H](C)N)c(F)cc3C(N)=O)ccc21` [Example 2-539] as the molecule, how does the IC50 [1] read?
**A.** < 10 nM

**Q.** And the IC50 [3]?
**A.** 130 to 200 nM

**Q.** With `CC[C@H](N)[C@H](Nc1nc(Nc2cccc3c2cnn3C)c(C(N)=O)cc1F)C1CC1` [Example 2-546, 6-(((1R,2S)-2-amino-1-cyclopropylbutyl)amino)-5-fluoro-2-((1-methyl-1H-indazol-4-yl)amino)nicotinamide] as the molecule, how does the IC50 [1] read?
**A.** < 10 nM

**Q.** And the IC50 [3]?
**A.** 130 to 200 nM
